# Measurements reported in patent US9938258B2 (Karyopharm Therapeutics Inc., priority 2012, dated 2018).
# Where two headings read alike, the source gives them in different places.
# Legend:
# Z138 cells = assay: MTT cell proliferation assay, Z138; assay type: cell-based; settings: Homo sapiens
# Method in brief: (§1)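 Cells plated at 5,000-10,000/well and attached overnight, then treated with eight compound concentrations from 1 nM to 30 μM. MTT added ~4 h, formazan solubilised and read at 490 nm. Percent inhibition versus negative control = (1-(ODo/OD))×100, mostly in duplicate, mean ± SE.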
# MS751 cells = assay: MTT cell proliferation assay, MS751; assay type: cell-based, human; settings: Homo sapiens
# Method in brief: as §1
# 3T3 cells = assay: MTT cell proliferation assay, 3T3; assay type: cell-based, mouse; settings: Mus musculus
# Method in brief: as §1
# [1] = Z-138, Z138 cells, approximately 64-72 hours incubation, read-out: MTT Assay IC50, Z138
# [2] = MS751, MS751 cells, approximately 64-72 hours incubation, read-out: MTT Assay IC50, MS751
# [3] = NIH3T3, 3T3 cells, approximately 64-72 hours incubation, read-out: MTT Assay IC50, 3T3
# [4] = Z-138, read-out: MTT Assay IC50, Z138
# [5] = MS751, read-out: MTT Assay IC50, MS751
# [6] = NIH3T3, read-out: MTT Assay IC50, 3T3
SMILES,IC50 (Z138 cells; [1]) [µM],IC50 (MS751 cells; [2]) [µM],IC50 (3T3 cells; [3]) [µM],IC50 (Z138 cells; [4]) [µM],IC50 (MS751 cells; [5]) [µM],IC50 (3T3 cells; [6]) [µM]
"CC(O)c1ccc(-c2cc(Cl)c3c(c2)CC(CNC(=O)/C=C/c2ccc(N)nc2)O3)s1 (stereo not drawn) [Compound 306, (E)-3-(6-aminopyridin-3-yl)-N-((7-chloro-5-(5-(1-hydroxyethyl)thiophen-2-yl)-2,3-dihydrobenzofuran-2-yl)methyl)acrylamide]",0.1 to 5,0.1 to 5,> 30,–,–,–
CC(O)c1ccc(-c2cc(Cl)c3c(c2)CC(CNC(=O)/C=C/c2cccnn2)O3)s1 (stereo not drawn) [Compound 307],0.1 to 5,0.1 to 5,0.1 to 5,–,–,–
"CC(=O)c1ccc(-c2cc(Cl)c3c(c2)CC(CNS(=O)(=O)/C=C/c2cccnc2)O3)s1 (stereo not drawn) [Compound 310, (E)-N-((5-(5-acetylthiophen-2-yl)-7-chloro-2,3-dihydrobenzofuran-2-yl)methyl)-2-(pyridine-3-yl) ethenesulphonamide]",–,–,–,5 to 30,> 30,> 30
"CC(=O)c1ccc(-c2cc(Cl)c3c(c2)CC(CNC(=O)/C=C/c2ccc(O)nc2)O3)s1 (stereo not drawn) [Compound 311, (E)-N-((5-(5-acetylthiophen-2-yl)-7-chloro-2,3-dihydrobenzofuran-2-yl)methyl)-3-(6-hydroxypyridin-3-yl)acrylamide]",–,–,–,> 30,> 30,> 30
"CC(=O)c1ccc(-c2cc(Cl)c3c(c2)CC(CNC(=O)/C=C/c2cccnn2)O3)o1 (stereo not drawn) [Compound 314, (E)-N-((5-(5-acetylfuran-2-yl)-7-chloro-2,3-dihydrobenzofuran-2-yl)methyl)-3-(pyridazin-3-yl)acrylamide]",0.1 to 5,0.1 to 5,0.1 to 5,–,–,–
"CC(=O)Nc1ccc(/C=C/C(=O)NCC2Cc3cc(-c4ccc(C(C)=O)s4)cc(Cl)c3O2)cn1 (stereo not drawn) [Compound 315, (E)-3-(6-acetamidopyridin-3-yl)-N-((5-(5-acetylthiophen-2-yl)-7-chloro-2,3-dihydrobenzofuran-2-yl)methyl)acrylamide]",–,–,–,> 30,> 30,> 30
"CC(=O)c1ccc(-c2cc(Cl)c3c(c2)CC(CNC(=O)/C=C/c2ccc(N)nc2)O3)o1 (stereo not drawn) [Compound 319, (E)-N-((5-(5-acetylfuran-2-yl)-7-chloro-2,3-dihydrobenzofuran-2-yl)methyl)-3-(6-aminopyridine-3-yl)acrylamide]",< 0.1,0.1 to 5,5 to 30,–,–,–
"CC(C)(O)c1ccc(-c2cc(Cl)c3c(c2)CC(CNC(=O)/C=C/c2cccnn2)O3)s1 (stereo not drawn) [Compound 320, (E)-N-((7-chloro-5-(5-(2-hydroxypropan-2-yl)thiophen-2-yl)-2,3-dihydrobenzofuran-2-yl)methyl)-3-(pyridazin-3-yl)acrylamide]",0.1 to 5,0.1 to 5,0.1 to 5,–,–,–
"CC(C)(O)c1ccc(-c2cc(Cl)c3c(c2)CC(CNC(=O)/C=C/c2ccc(N)nc2)O3)s1 (stereo not drawn) [Compound 321, (E)-3-(6-aminopyridin-3-yl)-N-((7-chloro-5-(5-(2-hydroxypropan-2-yl)thiophen-2-yl)-2,3-dihydrobenzofuran-2-yl)methyl)acrylamide]",< 0.1,0.1 to 5,5 to 30,–,–,–
CC(=O)c1sc(-c2cc(Cl)c3c(c2)CC(CNC(=O)/C=C/c2ccc(N)nc2)O3)c(C)c1C (stereo not drawn) [Compound 322],< 0.1,< 0.1,5 to 30,–,–,–
"Nc1ccc(/C=C/C(=O)NCC2Cc3cc(-c4cnc(C(=O)N5CCOCC5)nc4)cc(Cl)c3O2)cn1 (stereo not drawn) [Compound 323, (E)-3-(6-aminopyridin-3-yl)-N-((7-chloro-5-(2-(morpholine-4-carbonyl)pyrimidin-5-yl)-2,3-dihydrobenzofuran-2-yl)methyl)acrylamide]",0.1 to 5,0.1 to 5,5 to 30,–,–,–
"CN(C)C(=O)c1ccc(-c2cc(Cl)c3c(c2)CC(CNC(=O)/C=C/c2ccc(N)nc2)O3)o1 (stereo not drawn) [Compound 324, (E)-5-(2-((3-(6-Aminopyridin-3-yl)acrylamido)methyl)-7-chloro-2,3-dihydrobenzofuran-5-yl)-N,N-dimethylfuran-2-carboxamide]",< 0.1,< 0.1,5 to 30,–,–,–
"Cc1onc(-c2ccccc2)c1-c1cc(Cl)c2c(c1)CC(CNC(=O)/C=C/c1ccc(N)nc1)O2 (stereo not drawn) [Compound 325, (E)-3-(6-aminopyridin-3-yl)-N-((7-chloro-5-(5-methyl-3-phenylisoxazol-4-yl)-2,3-dihydrobenzofuran-2-yl)methyl)acrylamide]",< 0.1,0.1 to 5,0.1 to 5,–,–,–
"Nc1ccc(/C=C/C(=O)NCC2Cc3cc(-c4cnc(C(=O)N5CCOCC5)c(Cl)c4)cc(Cl)c3O2)cn1 (stereo not drawn) [Compound 326, (E)-3-(6-aminopyridin-3-yl)-N-((7-chloro-5-(5-chloro-6-(morpholine-4-carbonyl)pyridin-3-yl)-2,3-dihydrobenzofuran-2-yl)methyl)acrylamide]",< 0.1,0.1 to 5,5 to 30,–,–,–
"Cc1noc(-c2ccccc2)c1-c1cc(Cl)c2c(c1)CC(CNC(=O)/C=C/c1ccc(N)nc1)O2 (stereo not drawn) [Compound 327, (E)-3-(6-aminopyridin-3-yl)-N-((7-chloro-5-(3-methyl-5-phenylisoxazol-4-yl)-2,3-dihydrobenzofuran-2-yl)methyl)acrylamide]",< 0.1,0.1 to 5,0.1 to 5,–,–,–
"Nc1ccc(/C=C/C(=O)NCC2Cc3cc(-c4cc(F)c(C(=O)N5CCOCC5)cc4F)cc(Cl)c3O2)cn1 (stereo not drawn) [Compound 328, (E)-3-(6-Aminopyridin-3-yl)-N-((7-chloro-5-(2,5-difluoro-4-(morpholine-4-carbonyl)phenyl)-2,3-dihydrobenzofuran-2-yl)methyl)acrylamide]",< 0.1,< 0.1,0.1 to 5,–,–,–
"Nc1ccc(/C=C/C(=O)NCC2Cc3cc(-c4cnc(C(=O)N5CCOCC5)c(F)c4)cc(Cl)c3O2)cn1 (stereo not drawn) [Compound 329, (E)-3-(6-Aminopyridin-3-yl)-N-((7-chloro-5-(5-fluoro-6-(morpholine-4-carbonyl)pyridin-3-yl)-2,3-dihydrobenzofuran-2-yl)methyl)acrylamide]",< 0.1,0.1 to 5,5 to 30,–,–,–
"Nc1ccc(/C=C/C(=O)NCC2Cc3cc(-c4ncc(C(=O)N5CCOCC5)cn4)cc(Cl)c3O2)cn1 (stereo not drawn) [Compound 330, (E)-3-(6-Aminopyridin-3-yl)-N-((7-chloro-5-(5-(morpholine-4-carbonyl)pyrimidin-2-yl)-2,3-dihydrobenzofuran-2-yl)methyl)acrylamide]",< 0.1,< 0.1,5 to 30,–,–,–
"Nc1ccc(/C=C/C(=O)NCC2Cc3cc(-c4ccc(C(=O)N5CCOCC5)nn4)cc(Cl)c3O2)cn1 (stereo not drawn) [Compound 331, (E)-3-(6-Aminopyridin-3-yl)-N-((7-chloro-5-(6-(morpholine-4-carbonyl)pyridazin-3-yl)-2,3-dihydrobenzofuran-2-yl)methyl)acrylamide]",< 0.1,0.1 to 5,5 to 30,–,–,–
"Nc1ccc(/C=C/C(=O)NCC2Cc3cc(-c4cc(F)c(C(=O)N5CCOCC5)c(F)c4)cc(Cl)c3O2)cn1 (stereo not drawn) [Compound 332, (E)-3-(6-Aminopyridin-3-yl)-N-((7-chloro-5-(3,5-difluoro-4-(morpholine-4-carbonyl)phenyl)-2,3-dihydrobenzofuran-2-yl)methyl)acrylamide]",< 0.1,< 0.1,0.1 to 5,–,–,–
"Nc1ccc(/C=C/C(=O)NCC2Cc3cc(-c4ccc(C(=O)N5CCOCC5)cn4)cc(Cl)c3O2)cn1 (stereo not drawn) [Compound 333, (E)-3-(6-Aminopyridin-3-yl)-N-((7-chloro-5-(5-(morpholine-4-carbonyl)pyridin-2-yl)-2,3-dihydrobenzofuran-2-yl)methyl)acrylamide]",< 0.1,< 0.1,5 to 30,–,–,–
"O=C(/C=C/C1Cc2cc(-c3ccc(C(=O)N4CCOCC4)cc3)cc(Cl)c2O1)NCc1cccnc1 (stereo not drawn) [Compound 334, (E)-3-(7-Chloro-5-(4-(morpholine-4-carbonyl)phenyl)-2,3-dihydrobenzofuran-2-yl)-N-(pyridin-3-ylmethyl)acrylamide]",0.1 to 5,0.1 to 5,5 to 30,–,–,–
"Nc1ccc(/C=C/C(=O)NCC2Cc3cc(-c4cc(F)c(C(=O)N5CC(F)(F)C5)c(F)c4)cc(Cl)c3O2)cn1 (stereo not drawn) [Compound 335, (E)-3-(6-aminopyridin-3-yl)-N-((7-chloro-5-(4-(3,3-difluoroazetidine-1-carbonyl)-3,5-difluorophenyl)-2,3-dihydrobenzofuran-2-yl)methyl)acrylamide]",< 0.1,< 0.1,0.1 to 5,–,–,–
"Nc1ccc(/C=C/C(=O)NCC2Cc3cc(-c4ccc(C(=O)N5CC(F)(F)C5)c(F)c4)cc(Cl)c3O2)cn1 (stereo not drawn) [Compound 336, (E)-3-(6-aminopyridin-3-yl)-N-((7-chloro-5-(4-(3,3-difluoroazetidine-1-carbonyl)-3-fluorophenyl)-2,3-dihydrobenzofuran-2-yl)methyl)acrylamide]",< 0.1,< 0.1,0.1 to 5,–,–,–
Nc1ccc(/C=C/C(=O)NCC2Cc3cc(-c4ccc(C(=O)N5CC(F)(F)C5)c(F)c4F)cc(Cl)c3O2)cn1 (stereo not drawn) [Compound 337],< 0.1,< 0.1,0.1 to 5,–,–,–
"Nc1ccc(/C=C/C(=O)NCC2Cc3cc(-c4ccc(C(=O)N5CC(F)(F)C5)cn4)cc(Cl)c3O2)cn1 (stereo not drawn) [Compound 338, (E)-3-(6-aminopyridin-3-yl)-N-((7-chloro-5-(5-(3,3-difluoroazetidine-1-carbonyl)pyridin-2-yl)-2,3-dihydrobenzofuran-2-yl)methyl)acrylamide]",< 0.1,< 0.1,0.1 to 5,–,–,–
